In PMC7561186, “Rational design of balanced dual-targeting antibiotics with limited resistance” (PLoS Biology, 2020):
Converted amounts (≈) assume the structure as drawn. Like-named read-outs stand apart in the source and are kept apart here.

System: S. aureus clinical isolates
Assay: microbe, parasite or virus in culture
Format: cell-based
Conditions: Staphylococcus aureus, read-out: MIC

CC(=O)NC[C@H]1CN(c2ccc(N3CCOCC3)c(F)c2)C(=O)O1 [Linezolid]
MIC (MRSA, S. aureus IHMA 1621638, MRSA / VSSA): 2 µg/mL (≈ 5.93 µM) | MIC (MRSA, S. aureus IHMA 1622252, MRSA / VSSA): 4 µg/mL (≈ 11.9 µM) | MIC (MRSA, S. aureus IHMA 1622527, MRSA / VSSA): 4 µg/mL (≈ 11.9 µM) | MIC (MRSA, S. aureus IHMA 1666371, MRSA / VSSA): 0.5 µg/mL (≈ 1.48 µM) | MIC (MRSA, S. aureus IHMA 1695391, MRSA / VSSA): 2 µg/mL (≈ 5.93 µM) | MIC (MRSA, S. aureus IHMA 1703428, MRSA / VSSA): 2 µg/mL (≈ 5.93 µM) | MIC (MRSA, S. aureus IHMA 1720350, MRSA / VSSA): 2 µg/mL (≈ 5.93 µM) | MIC (MRSA, S. aureus IHMA 1732989, MRSA / VSSA): 4 µg/mL (≈ 11.9 µM) | MIC (MRSA, S. aureus IHMA 1742231, MRSA / VSSA): 2 µg/mL (≈ 5.93 µM) | MIC (MRSA, S. aureus IHMA 1766357, MRSA / VSSA): 4 µg/mL (≈ 11.9 µM) | MIC (MSSA / NRS 12 / VISA, S. aureus IHMA 1308244, NRS12, MSSA / VISA): 4 µg/mL (≈ 11.9 µM) | MIC (MSSA / NRS 13 / VISA, S. aureus IHMA 1308245, NRS13, MSSA / VISA): 2 µg/mL (≈ 5.93 µM) | MIC (MSSA / NRS 14 / VISA, S. aureus IHMA 1308246, NRS14, MSSA / VISA): 2 µg/mL (≈ 5.93 µM) | MIC (MSSA / NRS 17 / VISA, S. aureus IHMA 1308247, NRS17, MSSA / VISA): 2 µg/mL (≈ 5.93 µM) | MIC (MSSA / NRS 28 / VISA, S. aureus IHMA 1308249, NRS28, MSSA / VISA): 0.5 µg/mL (≈ 1.48 µM) | MIC (MSSA / NRS 52, S. aureus IHMA 1308252, NRS52, MSSA / VSSA* (*Expected VAN intermediate, confirmed VAN susceptible twice), test date 2018-11-07): 1 µg/mL (≈ 2.96 µM) | MIC (MSSA / USA100 / VRSA, S. aureus IHMA 672236, VRS6, MSSA / VRSA, USA100): 1 µg/mL (≈ 2.96 µM) | MIC (MSSA, S. aureus IHMA 1563826, MSSA / VSSA): 4 µg/mL (≈ 11.9 µM) | MIC (MSSA, S. aureus IHMA 1565492, MSSA / VSSA): 2 µg/mL (≈ 5.93 µM) | MIC (MSSA, S. aureus IHMA 1569499, MSSA / VSSA): 2 µg/mL (≈ 5.93 µM) | MIC (MSSA, S. aureus IHMA 1569754, MSSA / VSSA): 2 µg/mL (≈ 5.93 µM) | MIC (MSSA, S. aureus IHMA 1574202, MSSA / VSSA): 2 µg/mL (≈ 5.93 µM) | MIC (MSSA, S. aureus IHMA 1575652, MSSA / VSSA): 4 µg/mL (≈ 11.9 µM) | MIC (MSSA, S. aureus IHMA 1575779, MSSA / VSSA): 2 µg/mL (≈ 5.93 µM) | MIC (MSSA, S. aureus IHMA 1576329, MSSA / VSSA): 4 µg/mL (≈ 11.9 µM) | MIC (MSSA, S. aureus IHMA 1577800, MSSA / VSSA): 4 µg/mL (≈ 11.9 µM) | MIC (MSSA, S. aureus IHMA 1578560, MSSA / VSSA): 4 µg/mL (≈ 11.9 µM) | MIC (MSSA, S. aureus IHMA 1580233, MSSA / VSSA): 2 µg/mL (≈ 5.93 µM) | MIC (MSSA, S. aureus IHMA 1580925, MSSA / VSSA): 2 µg/mL (≈ 5.93 µM) | MIC (MSSA, S. aureus IHMA 1580955, MSSA / VSSA): 2 µg/mL (≈ 5.93 µM) | MIC (MSSA, S. aureus IHMA 1582586, MSSA / VSSA): 8 µg/mL (≈ 23.7 µM) | MIC (MSSA, S. aureus IHMA 1582691, MSSA / VSSA): 2 µg/mL (≈ 5.93 µM) | MIC (MSSA, S. aureus IHMA 1584230, MSSA / VSSA): 4 µg/mL (≈ 11.9 µM) | MIC (MSSA, S. aureus IHMA 1587279, MSSA / VSSA): 1 µg/mL (≈ 2.96 µM) | MIC (MSSA, S. aureus IHMA 1591459, MSSA / VSSA): 2 µg/mL (≈ 5.93 µM) | MIC (MSSA, S. aureus IHMA 1592749, MSSA / VSSA): 2 µg/mL (≈ 5.93 µM) | MIC (MSSA, S. aureus IHMA 1592751, MSSA / VSSA): 4 µg/mL (≈ 11.9 µM) | MIC (MSSA, S. aureus IHMA 1594297, MSSA / VSSA): 2 µg/mL (≈ 5.93 µM) | MIC (MSSA, S. aureus IHMA 1597120, MSSA / VSSA): 4 µg/mL (≈ 11.9 µM) | MIC (MSSA, S. aureus IHMA 1597125, MSSA / VSSA): 2 µg/mL (≈ 5.93 µM) | MIC (MSSA, S. aureus IHMA 1599157, MSSA / VSSA): 2 µg/mL (≈ 5.93 µM) | MIC (MSSA, S. aureus IHMA 1599506, MSSA / VSSA): 4 µg/mL (≈ 11.9 µM) | MIC (MSSA, S. aureus IHMA 1602078, MSSA / VSSA): 4 µg/mL (≈ 11.9 µM) | MIC (MSSA, S. aureus IHMA 1604586, MSSA / VSSA): 2 µg/mL (≈ 5.93 µM) | MIC (MSSA, S. aureus IHMA 1604609, MSSA / VSSA): 2 µg/mL (≈ 5.93 µM) | MIC (MSSA, S. aureus IHMA 1609919, MSSA / VSSA): 2 µg/mL (≈ 5.93 µM) | MIC (MSSA, S. aureus IHMA 1622864, MSSA / VSSA): 2 µg/mL (≈ 5.93 µM) | MIC (MSSA, S. aureus IHMA 1626392, MSSA / VSSA): 2 µg/mL (≈ 5.93 µM) | MIC (MSSA, S. aureus IHMA 1713793, MSSA / VSSA): 2 µg/mL (≈ 5.93 µM)
